This note sets out measurements from patent US20160378909A1, “PROCESS FOR IDENTIFYING CULTURE CONDITIONS FOR A CELL OR ORGANISM” (GLAXOSMITHKLINE BIOLOGICALS SA, priority 2013, published 2016).

Where two headings read alike, the source gives them in different places. A value given as a limit tells only on which side of the number the result lay.

In this test the test system is Bordetella pertussis. The test is described as follows: microbe, parasite or virus in culture. Type of test: cell-based. As to the method: Cells were harvested by centrifugation, washed twice with NaCl 0.9% (w/v), and resuspended in fresh medium (de novo minimal CDM; see composition in Table 1) at a theoretical OD650 nm of 0.5, as calculated from the OD650 nm of the culture before harvest. 20 μl of this cell suspension were used to inoculate each well of a 96-well microtiter plate filled with 180 μl of de novo minimal CDM. Only the inner wells of the plate were used for cultures, in order to minimize evaporation, and two controls were included, in which the supplement solution was replaced with water.
The plate was then incubated for 7 days at 35° C. in a Biotek Synergy H1 reader with constant shaking, and growth was automatically monitored every 10 minutes as OD650 nm.
The relative growth yield and growth rate for each supplement was then averaged over the three independent repeats, and the standard deviation was calculated.

Where [1] appears, read: Bordetella pertussis, 168 h, read-out: Relative yield Average, 2 mM in medium, max OD650 nm relative to water controls.
Setting [2] is: Bordetella pertussis, read-out: Relative growth rate Average, 2 mM in medium, first generation, relative to water controls.
Setting [3] is: 1 mM in medium, first generation, relative to water controls.
Setting [4] is: 1 mM in medium, max OD650 nm relative to water controls.
Where [5] appears, read: 10 mM in medium, first generation, relative to water controls.
The mark [6] stands for this setting: 2 mM in medium, max OD650 nm relative to water controls.
Setting [7] is: 5 mM in medium, first generation, relative to water controls.
Where [8] appears, read: 5 mM in medium, max OD650 nm relative to water controls.
Setting [9] is: 50 mM in medium, first generation, relative to water controls.
[10] abbreviates: 50 mM in medium, max OD650 nm relative to water controls.

As for `N[C@@H](Cc1c[nH]c2ccccc12)C(=O)O` [L-Tryptophane], the activity at 518 µM (Bordetella pertussis, 168 h, read-out: Relative yield Average, 0.518 mM in medium, max OD650 nm relative to water controls) was over 105% and the activity at 518 µM (Bordetella pertussis, read-out: Relative growth rate Average, 0.518 mM in medium, first generation, relative to water controls) was in the range of 95 to 105%. Further, for the setting “Bordetella pertussis, 168 h, read-out: Relative yield Average, 5.18 mM in medium, max OD650 nm relative to water controls”, the activity at 5180 µM was 95 to 105%.

Take `N[C@@H](Cc1ccc(O)cc1)C(=O)O` [L-Tyrosine]: the activity at 22.1 µM lay within 95 to 105% (Bordetella pertussis, 168 h, read-out: Relative yield Average, 0.0221 mM in medium, max OD650 nm relative to water controls) and 95 to 105% (Bordetella pertussis, read-out: Relative growth rate Average, 0.0221 mM in medium, first generation, relative to water controls). Further, the activity at 221 µM reads like this: (Bordetella pertussis, 168 h, read-out: Relative yield Average, 0.221 mM in medium, max OD650 nm relative to water controls) 95 to 105%; (Bordetella pertussis, read-out: Relative growth rate Average, 0.221 mM in medium, first generation, relative to water controls) under 95%.

On to `CC(C)[C@H](N)C(=O)O` [L-Valine], for which the activity at 2000 µM runs as follows: under setting [1], 95 to 105%; under setting [2], under 95%.

Take `O.O.O.O.O.O.[Cl-].[Cl-].[Mg+2]` [MgCl2•6H2O]: the “Relative growth rate Average” value under setting [3] came out at 99.38% and the “Relative growth rate Average” value under setting [5] is recorded as 106.39%. Also, the “Relative yield Average” value is, setting by setting: under setting [4], 102.26%; (10 mM in medium, max OD650 nm relative to water controls) 222.99%.

As for `O.O=S(=O)([O-])[O-].[Mn+2]` [MnSO4•H2O], the “Relative growth rate Average” value reads like this: (1.89 mg/L in medium, first generation, relative to water controls) 91.27%; (18.9 mg/L in medium, first generation, relative to water controls) 47.58%. For the same compound, the “Relative yield Average” value is listed as 109.53% (1.89 mg/L in medium, max OD650 nm relative to water controls) and 91.55% (18.9 mg/L in medium, max OD650 nm relative to water controls).

Turning to `NC(=O)c1ccc[n+]([C@@H]2O[C@H](COP(=O)([O-])OP(=O)(O)OC[C@H]3O[C@@H](n4cnc5c(N)ncnc54)[C@H](O)[C@@H]3O)[C@@H](O)[C@H]2O)c1` [NAD], the “Relative growth rate Average” value is, setting by setting: (10 mg/L in medium, first generation, relative to water controls) 100.14%; (100 mg/L in medium, first generation, relative to water controls) 97.38%. Also, the “Relative yield Average” value was determined as 100.15% (10 mg/L in medium, max OD650 nm relative to water controls) and 104.61% (100 mg/L in medium, max OD650 nm relative to water controls).

With `Cl.N` [NH4Cl], under setting [3], the “Relative growth rate Average” value stood at 98.56%. The “Relative yield Average” value under setting [4] turned out to be 104.80%.

For `O=P([O-])([O-])O.[Na+].[Na+]` [Na2HPO4], the “Relative growth rate Average” value by setting is: under setting [3], 99.98%; under setting [5], 101.26%.

`O.O.[Na+].[Na+].[O]=[Mo](=[O])([O-])[O-]` [Na2MoO4•2H2O]: the “Relative growth rate Average” value by setting is: (0.94 mg/L in medium, first generation, relative to water controls) 86.76%; (9.4 mg/L in medium, first generation, relative to water controls) 91.79%. Besides, the “Relative yield Average” value was determined as 101.96% (0.94 mg/L in medium, max OD650 nm relative to water controls) and 105.65% (9.4 mg/L in medium, max OD650 nm relative to water controls).

As for `O=C([O-])O.[Na+]` [NaHCO3], under setting [6], the “Relative yield Average” value is reported as 102.33%.

Turning to `[I-].[K+]` [Potassium iodide], the “Relative growth rate Average” value by setting is: (0.47 mg/L in medium, first generation, relative to water controls) 94.69%; (4.7 mg/L in medium, first generation, relative to water controls) 99.91%. Further, the “Relative yield Average” value reads like this: (0.47 mg/L in medium, max OD650 nm relative to water controls) 101.89%; (4.7 mg/L in medium, max OD650 nm relative to water controls) 104.26%.

On to `Cc1ncc(CO)c(CO)c1O` [Pyridoxine], for which the activity at 0.2 µg/mL (Bordetella pertussis, 168 h, read-out: Relative yield Average, 0.2 mg/L in medium, max OD650 nm relative to water controls) is 95 to 105% and the activity at 0.2 µg/mL (Bordetella pertussis, read-out: Relative growth rate Average, 0.2 mg/L in medium, first generation, relative to water controls) is 95 to 105%. Besides, the activity at 2 µg/mL reads like this: (Bordetella pertussis, 168 h, read-out: Relative yield Average, 2 mg/L in medium, max OD650 nm relative to water controls) 95 to 105%; (Bordetella pertussis, read-out: Relative growth rate Average, 2 mg/L in medium, first generation, relative to water controls) 95 to 105%.

As for `Cc1cc2nc3c(=O)[nH]c(=O)nc-3n(C[C@H](O)[C@H](O)[C@H](O)CO)c2cc1C` [Riboflavin], the activity at 0.3 µg/mL is, setting by setting: (Bordetella pertussis, 168 h, read-out: Relative yield Average, 0.3 mg/L in medium, max OD650 nm relative to water controls) 95 to 105%; (Bordetella pertussis, read-out: Relative growth rate Average, 0.3 mg/L in medium, first generation, relative to water controls) over 105%. The activity at 3 µg/mL fell in the range of 95 to 105% (Bordetella pertussis, 168 h, read-out: Relative yield Average, 3 mg/L in medium, max OD650 nm relative to water controls) and 95 to 105% (Bordetella pertussis, read-out: Relative growth rate Average, 3 mg/L in medium, first generation, relative to water controls).

For the compound `C[C@H](O)C(=O)[O-].[Na+]` [Sodium L-Lactate], the “Relative growth rate Average” value under setting [7] amounted to 128.73% and the “Relative growth rate Average” value under setting [9] came out at 103.33%. The “Relative yield Average” value worked out at 100.70% under setting [8] and 192.99% under setting [10].

Regarding `CC(=O)[O-].[Na+]` [Sodium acetate], the “Relative growth rate Average” value runs as follows: under setting [7], 101.45%; under setting [9], 71.40%. For the same compound, the “Relative yield Average” value reads like this: under setting [8], 99.15%; under setting [10], 152.20%.

With `O=C[O-].[Na+]` [Sodium formate], the “Relative growth rate Average” value is 97.36% (2 mM in medium, first generation, relative to water controls) and 89.12% (20 mM in medium, first generation, relative to water controls). Moreover, the “Relative yield Average” value is 143.35% under setting [6] and 168.28% (20 mM in medium, max OD650 nm relative to water controls).

On to `CC(=O)C(=O)O` [Sodium pyruvate], for which the activity at 2000 µM by setting is: under setting [1], under 95%; under setting [2], under 95%.

Take `O=C(O)CCC(=O)O` [Succinic acid]: the activity at 2000 µM under setting [1] is under 95%.
